From patent publication US9481654B2, “Compositions and methods for inhibition of the JAK pathway” (Rigel Pharmaceuticals, Inc., priority 2006, dated 2016)
pIC50: −log10 of the molar value. Structures can show the parent of a compound that is named as a salt.

Key:
[1] = tested on: IL-4 stimulated CD23 upregulation in human Ramos B cells (JAK-1/JAK-3, Stat-6); experiment: Assay for Ramos B-Cell Line Stimulated with IL-4 (CD23 upregulation, FACS); assay type: cell-based
Method in brief: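 Log-phase Ramos B cells (5×10^4 per point, RPMI with 5% serum) pre-incubated with compound or DMSO 1 h at 37° C, then stimulated with IL-4 at 50 units/mL final for 20-24 h. CD23 upregulation measured by staining and flow cytometry.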

[2] = tested on: primary human T-cells (IL-2 induced proliferation, JAK-1/JAK-3, Stat-5); experiment: Primary Human T-Cell Proliferation Assay Stimulated with IL-2 (CellTiter-Glo); assay type: cell-based; conditions: Table III Example 4
Protocol: In this assay, primary human T-cells derived from peripheral blood and pre-activated through stimulation of the T-cell receptor and CD28, proliferate in culture in response to the cytokine Interleukin-2 (IL-2). This proliferative response is dependent on the activation of JAK1 and JAK3 tyrosine kinases, which phosphorylate and activate the transcription factor Stat-5. The primary human T-cells are incubated with the 2,4-pyrimidinediamine compounds in the presence of IL-2 for 72 hours, and at the assay endpoint intracellular ATP concentrations are measured to assess cell viability. A reduction in cell proliferation compared to control conditions is indicative of inhibition of the JAK kinase pathway.
Primary human T-cells derived from peripheral blood and pre-activated through stimulation of the T-cell receptor and CD28 proliferate in vitro in response to the cytokine Interleukin-2 (IL-2). This proliferative response is dependent on the activation of JAK-1 and JAK-3 tyrosine kinases, which phosphorylate and activate the transcription factor Stat-5.
Human primary T cells were prepared as follows. […] The lymphocytes at the serum: ficoll interface were recovered and washed twice with 5 volumes of PBS. […] The primary T-cells were stimulated for 3 to 4 days, then transferred to a fresh flask and maintained in RPMI with 10% FBS and 40 U/mL IL-2.
Primary T-cells were washed twice with PBS to remove the IL-2 and resuspended in Yssel's medium at 2×10^6 cells/mL. 50 μL of cell suspension containing 80 U/mL IL-2 was added to each well of a flat bottom 96 well black plate. For the unstimulated control, IL-2 was omitted from the last column on the plate. […] 50 μL of 2× compound was added per well in duplicate and the cells were allowed to proliferate for 72 hours at 37° C.
Proliferation was measured using CellTiter-Glo® Luminescent Cell Viability Assay (Promega), which determines the number of viable cells in culture based on quantitation of the ATP present, as an indicator of metabolically active cells. The substrate was thawed and allowed to come to room temperature. After mixing the Cell Titer-Glo reagent and diluent together, 100 μL was added to each well. The plates were mixed on an orbital shaker for two minutes to induce lysis and incubated at room temperature for an additional ten minutes to allow the signal to equilibrate.

[3] = Homo sapiens, Ramos, Table III Example 3

Row | pIC50 [1, 3] | Compound | pIC50 ([1]; Table III Example 3) | pIC50 [2] | pIC50 ([1]; Table III Example 3, sodium salt) | pIC50 ([2]; Homo sapiens, T-cell)
1 | – | Cc1cnc(Nc2cccc(S(=O)(=O)NC3CCN(C)CC3)c2)nc1Nc1cccc(CNS(=O)(=O)C2CC2)c1 [Compound I-160, N4-(3-cyclopropylsulfonylaminomethyl)phenyl-5-methyl-N2-[3-(1-methylpiperidin-4-yl)aminosulfonyl]phenyl-2,4-pyrimidinediamine] | 6.62 | 5.40 | – | –
2 | – | Cc1cnc(Nc2ccc(S(=O)(=O)NCc3ccccc3)cc2)nc1Nc1cccc(CNS(=O)(=O)C2CC2)c1 [Compound I-157, N2-(4-benzylaminosulfonyl)phenyl-N4-(3-cyclopropylsulfonylaminomethyl)phenyl-5-methyl-2,4-pyrimidinediamine] | 6.60 | 5.96 | – | –
3 | – | Cc1cnc(Nc2cccc(S(=O)(=O)NC3CCN(C)CC3)c2)nc1Nc1ccc(CNS(=O)(=O)C2CC2)cc1 [Compound I-152, N4-(4-cyclopropylsulfonylaminomethyl)phenyl-5-methyl-N2-[3-(1-methylpiperidin-4-yl)aminosulfonyl]phenyl-2,4-pyrimidinediamine] | 6.78 | 6.14 | – | –
4 | – | CCS(=O)(=O)NCc1ccc(Nc2nc(Nc3ccc(C)c(S(N)(=O)=O)c3)ncc2F)cc1Cl [Compound I-76, N2-(3-aminosulfonyl-4-methyl)phenyl-N4-(3-chloro-4-ethylsulfonylaminomethyl)phenyl-5-fluoro-2,4-pyrimidinediamine] | 6.77 | 6.33 | – | –
5 | – | Cc1cnc(Nc2cccc(S(=O)(=O)NC(=O)[C@@H](NC(=O)OCc3ccccc3)C(C)C)c2)nc1Nc1cccc(CNS(=O)(=O)C2CC2)c1 [Compound I-147, N2-[3-N-(Cbz-L-Val)aminosulfonyl]phenyl-N4-(3-cyclopropylsulfonylaminomethyl)phenyl-5-methyl-2,4-pyrimidinediamine sodium salt] | – | 4.60 | 4.86 | –
6 | – | Cc1cnc(Nc2ccc(S(=O)(=O)NCc3ccccc3)cc2)nc1Nc1ccc(CNS(=O)(=O)C2CC2)cc1 [Compound I-153, N2-(4-benzylaminosulfonyl)phenyl-N4-(4-cyclopropylsulfonylaminomethyl)phenyl-5-methyl-2,4-pyrimidinediamine] | 7.10 | 6.93 | – | –
7 | – | Cc1cnc(Nc2ccc(S(=O)(=O)NC3CCN(C)CC3)cc2)nc1Nc1ccc(CNS(=O)(=O)C2CC2)cc1 [Compound I-151, N4-(4-cyclopropylsulfonylaminomethyl)phenyl-5-methyl-N2-[4-(1-methylpiperidin-4-yl)aminosulfonyl]phenyl-2,4-pyrimidinediamine] | 6.45 | 5.97 | – | –
8 | – | CCS(=O)(=O)N[C@@H](C)c1ccc(Nc2nc(Nc3ccc(S(N)(=O)=O)cc3)ncc2F)cc1 [Compound I-26, N2-(4-aminosulfonyl)phenyl-N4-[4-(1S-ethylsulfonylamino)ethyl]phenyl-5-fluoro-2,4-pyrimidinediamine] | 6.60 | 5.94 | – | –
9 | 7.13 | C#CCNS(=O)(=O)c1cccc(Nc2ncc(F)c(Nc3ccc(CNS(=O)(=O)C4CC4)cc3)n2)c1 [Compound I-7, 5-Fluoro-N4-[4-(cyclopropylsulfonylaminomethyl)phenyl]-N2-[3-(prop-2-ynylaminosulfonyl)phenyl]-2,4-pyrimidinediamine] | – | – | – | 6.95
10 | – | CS(=O)(=O)CS(=O)(=O)NCc1ccc(Nc2nc(Nc3ccc(S(N)(=O)=O)cc3)ncc2F)cc1 [Compound I-85, N2-(4-aminosulfonyl)phenyl-5-fluoro-N4-[4-(methylsulfonylmethylsulfonylamino)methyl]phenyl-2,4-pyrimidinediamine] | 5.51 | 5.41 | – | –
11 | – | CCS(=O)(=O)N[C@H](C)c1ccc(Nc2nc(Nc3ccc(S(N)(=O)=O)cc3)ncc2F)cc1 [Compound I-29, N2-(4-aminosulfonyl)phenyl-N4-[4-(1R-ethylsulfonylamino)ethyl]phenyl-5-fluoro-2,4-pyrimidinediamine] | 6.69 | 6.05 | – | –
12 | – | Cc1cnc(Nc2ccc(S(=O)(=O)Nc3ccccc3)cc2)nc1Nc1cccc(CNS(=O)(=O)C2CC2)c1 [Compound I-155, N4-(3-cyclopropylsulfonylaminomethyl)phenyl-5-methyl-N2-(4-phenylaminosulfonyl)phenyl-2,4-pyrimidinediamine] | 6.60 | 5.85 | – | –
13 | 6.19 | C#CCNS(=O)(=O)Cc1cccc(Nc2nc(Nc3ccc(S(N)(=O)=O)cc3)ncc2F)c1 [Compound I-2, N2-(4-Aminosulfonylphenyl)-5-fluoro-N4-[3-(prop-2-ynylaminosulfonylmethyl)phenyl]-2,4-pyrimidinediamine] | – | – | – | 5.43
14 | – | Cc1cnc(Nc2ccc(S(=O)(=O)NCc3ccncc3)cc2)nc1Nc1ccc(CNS(=O)(=O)C2CC2)cc1 [Compound I-168, N4-(4-cyclopropylsulfonylaminomethyl)phenyl-5-methyl-N2-[4-(4-pyridylmethyl)aminosulfonyl]phenyl-2,4-pyrimidinediamine] | 6.56 | 6.46 | – | –
15 | – | Cc1cnc(Nc2ccc(S(N)(=O)=O)cc2)nc1Nc1ccc(CNS(=O)(=O)c2cccnc2)cc1 [Compound I-99, N2-(4-aminosulfonyl)phenyl-5-methyl-N4-[4-(pyrid-3-yl)sulfonylaminomethyl]phenyl-2,4-pyrimidinediamine] | 6.25 | 6.02 | – | –
16 | – | CCS(=O)(=O)NCc1ccc(Nc2nc(Nc3ccc(S(N)(=O)=O)cc3)ncc2F)cc1Cl [Compound I-74, N2-(4-aminosulfonyl)phenyl-N4-(3-chloro-4-ethylsulfonylaminomethyl)phenyl-5-fluoro-2,4-pyrimidinediamine] | 6.44 | 5.65 | – | –
17 | – | Cc1cnc(Nc2ccc(S(=O)(=O)Nc3cccnc3)cc2)nc1Nc1ccc(CNS(=O)(=O)C2CC2)cc1 [Compound I-171, N4-(4-cyclopropylsulfonylaminomethyl)phenyl-5-methyl-N2-[4-(3-pyridyl)aminosulfonyl]phenyl-2,4-pyrimidinediamine] | 4.71 | 4.37 | – | –
18 | – | CN1CCC(NS(=O)(=O)Cc2cccc(Nc3nc(Nc4cccc(S(N)(=O)=O)c4)ncc3F)c2)CC1 [Compound I-108, N2-(3-Aminosulfonylphenyl)-5-fluoro-N4-[3-(1-methylpiperdin-4-ylaminosulfonylmethylene)phenyl]-2,4-pyrimidinediamine] | 5.29 | 4.59 | – | –
19 | – | Cc1cnc(Nc2cccc(S(=O)(=O)Nc3ccccc3)c2)nc1Nc1cccc(CNS(=O)(=O)C2CC2)c1 [Compound I-156, N4-(3-cyclopropylsulfonylaminomethyl)phenyl-5-methyl-N2-(3-phenylaminosulfonyl)phenyl-2,4-pyrimidinediamine] | 6.57 | 5.97 | – | –
20 | – | CC(=O)Nc1nc(C)c(S(=O)(=O)NCc2ccc(Nc3nc(Nc4cccc(S(N)(=O)=O)c4)ncc3F)cc2)s1 [Compound I-42, N4-[4-(2-acetylamino-4-methylthiazol-5-yl)sulfonylaminomethyl]phenyl-N2-(3-aminosulfonyl)phenyl-5-fluoro-2,4-pyrimidinediamine] | 5.94 | 5.49 | – | –
21 | – | Cc1cnc(Nc2ccc(S(=O)(=O)NC3CCN(C)CC3)cc2)nc1Nc1cccc(CNS(=O)(=O)C2CC2)c1 [Compound I-159, N4-(3-cyclopropylsulfonylaminomethyl)phenyl-5-methyl-N2-[4-(1-methylpiperidin-4-yl)aminosulfonyl]phenyl-2,4-pyrimidinediamine] | 6.27 | 5.10 | – | –
